In patent US8481077B2, “Microbubbles and methods for oxygen delivery” (The Trustees of Columbia University in the City of New York, priority 2007, dated 2013):

Assays:
[1] = Main phase transition temperature (Tm) and reduced temperature (TR) of microbubble lipids; assay type: physicochemical; settings: reduced temperature T/Tm in Kelvin
Procedure: As used herein, the “phase transition temperature” (Tm) refers to the temperature at which lipid assemblies transition from a solid (crystalline) phase to a fluid (liquid crystalline) phase. For example, 1,2-Dipentadecanolyl-sn-Glycero-3-Phosphoeholine (C15) has a Tm of 33° C. Thus this lipid is in the solid phase at room temperature and transitions to the fluid phase when it is injected into the body.
Shell cohesion, as a function of acyl chain length, may be represented by the reduced temperature (TR), which is equal to the ratio of the ambient temperature (or “working temperature”) (T) to the main phase transition temperature (Tm) of the lipid (in Kelvin). For TR>1, the shell is in an expanded (fluid) state at the working temperature. For TR<1, the shell is in a condensed (solid) state at the working temperature. See Table 2 for a list of lipids with their corresponding main phase transition temperatures (Tm) and reduced temperatures (TR).

[2] = main phase transition temperature, solid to fluid phase; cited from earlier work
[3] = system: desaturated, venous whole blood; settings: 0.2 mL added to 2 mL blood, one inversion
Procedure: In one test tube, 0.2 mL of the microbubbles were added to 2 mL of desaturated, venous whole blood.
The test tubes were inverted once, and co-oximetry and blood gas values measurements were taken using a Radiometer ABL800 X blood gas machine.

Row | Structure (SMILES) | TR at 25° C. [1] | TR at 37° C. [1] | Tm (° C.) [2] | PCO2 [3] | PO2 [3] | oxygenated hemoglobin (oxyHb) [3] | pH [3]
1 | CCCCCCCCCCCC(=O)OC[C@H](COP(=O)([O-])OCC[N+](C)(C)C)OC(=O)CCCCCCCCCCC [C12, 1,2-Dilauroyl-sn-Glycero-3-Phosphocholine] | 1.10 | 1.14 | −1 °C |  |  |  | 
2 | CCCCCCCCCCCCCC(=O)OC[C@H](COP(=O)([O-])OCC[N+](C)(C)C)OC(=O)CCCCCCCCCCCCC [C14, 1,2-Dimyristoyl-sn-Glycero-3-Phosphocholine] | 1.01 | 1.05 | 23 °C |  |  |  | 
3 | CCCCCCCCCCCCCCC(=O)OC[C@H](COP(=O)([O-])OCC[N+](C)(C)C)OC(=O)CCCCCCCCCCCCCC [C15, 1,2-Dipentadecanoyl-sn-Glycero-3-Phosphocholine] | 0.97 | 1.01 | 33 °C |  |  |  | 
4 | CCCCCCCCCCCCCCCC(=O)OC[C@H](COP(=O)([O-])OCC[N+](C)(C)C)OC(=O)CCCCCCCCCCCCCCC [C16, 1,2-Dipalmitoyl-sn-Glycero-3-Phosphocholine] | 0.95 | 0.99 | 41 °C |  |  |  | 
5 | CCCCCCCCCCCCCCCCCC(=O)OC[C@H](COP(=O)(O)OCCN)OC(=O)CCCCCCCCCCCCCCCCC [C18, 1,2-Distearoyl-sn-Glycero-3-Phosphoethanolamine] | 0.91 | 0.95 | 55 °C |  |  |  | 
6 | O=O [unencapsulated oxygen, oxygen] |  |  |  | 59 mmHg | 33 mmHG | 59% | 7.33
